{"source": "patent US20260102377A1", "about": "“COMPOSITIONS AND METHODS FOR TREATING MYASTHENIA GRAVIS” (priority 2022, published 2026)", "key": {"[1]": {"system": "patients with myasthenia gravis", "experiment": "Phase IIA clinical trial (Part C): repetitive nerve stimulation (CMAP decrement, nasalis muscle)", "type": "in vivo, human", "settings": "for RNS decrement responders / Patients with RNS decrement at baseline who recovered (less than 5% decrement): 3- and 5-hour measurements; for RNS decrement responders: placebo 0%", "protocol": "(§1) For each subject, the study consisted of three study periods during which subjects received either a single dose of NMD670 400 mg, NMD670 1200 mg, or placebo with a 7-day washout period between visits. On these study visits, subjects were asked to refrain from their regular dose of pyridostigmine (if applicable) from 14 h before dosing until after the last pharmacodynamic measurement on Day 1 (see Table 13: Visit and Assessment Schedule). The cross-over design allowed intra-individual comparison of drug effects versus placebo (see FIG. 16). A balanced design was applied to control for first-order carry-over effects.\n(§2) Part C was a double-blinded, placebo-controlled, three-way cross-over comparison of two single oral doses of NMD670 in men and women with stable symptomatic myasthenia gravis. 12 patients were enrolled. For each subject, the study consisted of three study periods during which subjects received either a single dose of NMD670 or placebo. On these study visits, subjects were asked to refrain from their regular dose of pyridostigmine (if applicable) for 14 hours before dosing. Single doses were administered in randomized order (400 mg free acid, 1200 mg free acid, or placebo p.o.), with a 7-day washout period between visits (FIG. 16). NMD670/placebo was administered with 240 ml of still water.\nRNS uses trains of 10 supramaximal electrical stimuli at 3 and 5 Hz using a Medelec Synergy 11.0. The optimal stimulation site on the skin is identified using inframaximal stimuli, after which the limit of supramaximal intensity is established. The working intensity is about 130% of that threshold. RNS is performed on the facial nerve/nasalis muscle combination. Techniques have been described previously (Niks et al., Muscle & Nerve, 2003, 28(2):236-238; Ruys-Van Oeyen et al., Muscle & Nerve, 2002, 26(2):279-282; Schumm et al., Muscle & Nerve, 1984, 7(2):147-151).\nCompound Muscle Action Potentials (CMAPs) were recorded from the nasalis muscle in response to nerve stimulation. Decrement refers to decline in CMAP amplitude during repeated stimulation and indicates neuromuscular transmission failure."}, "EAMG rats [2]": {"system": "EAMG rats", "experiment": "Grip strength test after single dose of Mestinon and CIC-1 inhibitor alone or in combination", "type": "in vivo, rat", "protocol": "(§3) To induce EAMG, 250 μL of emulsion of Complete Freund's Adjuvant, consisting of heat-inactivated Mycobacterium tuberculosis H37Ra in non-metabolizable oils, together with Phosphate-Buffered Saline (PBS) and 80 μg of the extracellular α-domain peptide fragment of the human nicotinic acetylcholine receptor (antigen) was injected subcutaneously in seven-week-old, anaesthetized Lewis rats. The disease-inducing antigen was supplied by the Hellenic Pasteur institute3. The emulsion was deposited at the tail base, left hindleg, and right foreleg. After injection, animals were allowed to recover and returned to their home cage maintained in ventilated racks under controlled temperature (20 to 22° C.) and humidity (˜55%) control, under a 12-h light/12-h dark cycle with food and water provided ad libitum. The animals had pathogen free status and the housing and changing system was designed to assure that the pathogen free status was preserved during the study. The EAMG rats were observed, weighed, and scored for MG symptoms weekly until symptoms of MG developed, whereafter animals were observed daily.\nIn EAMG animals with severe MG symptoms the effects of CIC-1 inhibitor and Mestinon (pyridostigmine) alone or in combination was assessed. […] The study was blinded to both the experimenter and during subsequent analysis. Animals were subjected to grip strength test before compound administration, as described above and then dosed per oral with either 0.375 mg/kg pyridostigmine bromide (Mestinon) (CAS-no 101-26-8), 20 mg/kg NMD670 or a combination of both pyridostigmine and NMD670. Grip strength was tested 45 minutes post dosing. […] The change in grip strengths was calculated for individual animals relative to the results obtained prior to administration of test article and then averaged.\nGrip strength was measured on a BIOSEB BIO-GT3 Grip strength meter (force transducer, S/N 180271). […] Care was taken to ensure that the force recorded reflected the grip strength of the rat and not the force of the pulls conducted by the operator. […]"}, "EAMG rats [3]": {"system": "EAMG rats", "experiment": "14-day dosing in EAMG animals: grip strength", "type": "in vivo, rat", "protocol": "as §3\nSixteen (16) rats with an EAMG clinical score of 2 were allocated to the study and stratified to one of the two treatment groups (vehicle vs NMD670, 8 rats per group). Stratification was based on rotarod endurance and grip strength performance with the aim to obtain similar average starting points for the two groups. Grip strength and Rotarod performance were measured prior to treatment (day 0) and on days 1, 4, 7, 9, 11 and 14 during treatment. The treatment was administered by per oral gavage. Dosing was twice daily with 20 mg/kg NMD670 or vehicle (sterile water) for 14 days unless the rat was subjected to premature termination due to reaching humane endpoints. The dose solutions for the treatment groups were blinded. Thus, experimenters and subsequent analysis were blinded as to which group received CIC-1 inhibitor and which group received vehicle. Full analysis of data and statistics were concluded before unblinding the data. Plasma samples were obtained on days 0, 1 and 14, with muscle samples obtained on day 14 at termination.\nGrip strength was measured on a BIOSEB BIO-GT3 Grip strength meter (force transducer, S/N 180271). The rat was handled to allow all four paws to grab the mesh on the grip meter and the rat was then pulled 5 times by the base of the tail in the opposite direction of its body orientation, i.e. towards the operator and away from the grip meter. Care was taken to ensure that the force recorded reflected the grip strength of the rat and not the force of the pulls conducted by the operator. There was minimal pause between the 5 repeated pulls with recordings being separated only by the time of handling the rat (few seconds). Measurements were considered invalid if the rat let go with one or more limbs before the pull was initiated. Average values of the 5 pulls per test occasion were used for further data processing."}, "[4]": {"system": "patients with myasthenia gravis", "experiment": "Phase IIA clinical trial (Part C): hand grip strength (Jamar dynamometer)", "type": "in vivo, human", "protocol": "as §1, §2\nHand grip was evaluated with a Jamar hand grip dynamometer. An analysis of hand grip strength, an item of QMG score and therefore not an independent variable for the total score, was also performed (table 18)."}}, "note": "“And” between values parts separate entries of the source, which are not always exact repeats. Identical values can stand only once. “Also recorded” adds a separate entry of the source."}
{"smiles": "C[C@H](Oc1ccc(Br)cc1-c1ccon1)C(=O)O", "note": "[NMD670, (2S)-2-[4-bromo-2-(1,2-oxazol-3-yl)phenoxy]propanoic acid]", "values": [{"measurement": "Treatment effect on CMAP decrement (continuous measurements)", "setting": "[1]; 400 mg and 1200 mg single doses, nasalis muscle", "result": "No significant treatment effects and no trends of dose-dependent effects"}, {"measurement": "RNS decrement responders", "setting": "[1]; 400 mg arm", "result": 83, "unit": "%"}, {"measurement": "Patients with RNS decrement at baseline who recovered (less than 5% decrement)", "setting": "[1]; 400 mg arm, of 6 subjects with decrement at baseline", "result": 5, "unit": "subjects"}, {"measurement": "RNS decrement responders", "setting": "[1]; 1200 mg arm", "result": 33, "unit": "%"}, {"measurement": "Patients with RNS decrement at baseline who recovered (less than 5% decrement)", "setting": "[1]; 1200 mg arm, of 3 subjects with decrement at baseline", "result": 1, "unit": "subjects"}, {"measurement": "Grip strength after administration (significance vs vehicle)", "setting": "EAMG rats [2]; 45 minutes after dosing, 20 mg/kg NMD670, or with 0.375 mg/kg Mestinon", "result": "significantly increased"}, {"measurement": "Increase in Pulled Force (%)", "setting": "EAMG rats [2]; per oral, 45 minutes post dosing, 0.375 mg/kg Mestinon, 20 mg/kg NMD670 or both", "result": "15±5% and 14.5 ± 5.1%"}, {"measurement": "Grip strength over vehicle group throughout the period of treatment", "setting": "EAMG rats [3]; 14-day chronic dosing, 20 mg/kg twice daily", "result": "increased grip strength"}, {"measurement": "Grip strength relative to bodyweight", "setting": "EAMG rats [3]; day 0 (prior to treatment), 20 mg/kg twice daily per oral, P > 0.9999 vs vehicle", "result": "4.8 ± 0.17"}, {"measurement": "Grip strength relative to bodyweight", "setting": "EAMG rats [3]; day 1, 20 mg/kg twice daily per oral, P = 0.1225 vs vehicle", "result": "5.5 ± 0.46"}, {"measurement": "Grip strength relative to bodyweight", "setting": "EAMG rats [3]; day 4, 20 mg/kg twice daily per oral, P = 0.0629 vs vehicle", "result": "5.4 ± .038"}, {"measurement": "Grip strength relative to bodyweight", "setting": "EAMG rats [3]; day 7, 20 mg/kg twice daily per oral, P = 0.7266 vs vehicle", "result": "4.9 ± 0.26"}, {"measurement": "Grip strength relative to bodyweight", "setting": "EAMG rats [3]; day 9, 20 mg/kg twice daily per oral, P = 0.2100 vs vehicle", "result": "5.0 ± 0.27"}, {"measurement": "Grip strength relative to bodyweight", "setting": "EAMG rats [3]; day 11, 20 mg/kg twice daily per oral, P = 0.0206 vs vehicle", "result": "5.4 ± 0.41"}, {"measurement": "Grip strength relative to bodyweight", "setting": "EAMG rats [3]; day 14, 20 mg/kg twice daily per oral, P = 0.1010 vs vehicle", "result": "5.1 ± 0.47"}, {"measurement": "Right-hand grip strength, CFB over placebo, Arithmetic mean", "setting": "[4]; 400 mg versus placebo, 3-hour", "result": 2.4, "unit": "kg"}, {"measurement": "Right-hand grip strength, CFB over placebo, LSM", "setting": "[4]; 400 mg versus placebo, 3-hour, p = 0.05", "result": 2.4, "unit": "kg"}, {"measurement": "Right-hand grip strength, CFB over placebo, Arithmetic mean", "setting": "[4]; 400 mg versus placebo, 5-hour", "result": 0.4, "unit": "kg"}, {"measurement": "Right-hand grip strength, CFB over placebo, LSM", "setting": "[4]; 400 mg versus placebo, 5-hour, p = 0.76", "result": 0.4, "unit": "kg"}, {"measurement": "Right-hand grip strength, CFB over placebo, LSM", "setting": "[4]; 400 mg versus placebo, Overall, p = 0.19", "result": 1.4, "unit": "kg"}, {"measurement": "Right-hand grip strength, CFB over placebo, Arithmetic mean", "setting": "[4]; 1200 mg versus placebo, 3-hour", "result": 2.9, "unit": "kg"}, {"measurement": "Right-hand grip strength, CFB over placebo, LSM", "setting": "[4]; 1200 mg versus placebo, 3-hour, p = 0.02", "result": 2.9, "unit": "kg"}, {"measurement": "Right-hand grip strength, CFB over placebo, Arithmetic mean", "setting": "[4]; 1200 mg versus placebo, 5-hour", "result": 2.8, "unit": "kg"}, {"measurement": "Right-hand grip strength, CFB over placebo, LSM", "setting": "[4]; 1200 mg versus placebo, 5-hour, p = 0.03", "result": 2.8, "unit": "kg"}, {"measurement": "Right-hand grip strength, CFB over placebo, LSM", "setting": "[4]; 1200 mg versus placebo, Overall, p = 0.01", "result": 2.8, "unit": "kg"}, {"measurement": "Change from baseline over placebo in hand grip strength, left and right hand", "setting": "[4]; both doses (400 mg, 1200 mg), statistically significant for the right hand", "result": "improved; also recorded: numerically positive"}]}
